Earlier results as cited in US20040048919A1, “Compositions and methods for reduction of inflammatory symptoms and/or biomarkers in female subjects” (priority 2002, published 2004).

Settings: 3.6 gm DHA per day (50x average dietary intake)

CC/C=C\C/C=C\C/C=C\C/C=C\C/C=C\C/C=C\CCC(=O)O [DHA, all-cis 4,7, 10, 13, 16, 19-docosahexaenoic acid]
toxicities on ingestion by humans: no apparent toxicities
